# Test results from patent US20250163104A1, “MACROCYCLIC IMMUNOMODULATORS” (priority 2021, published 2025).
# *1 amine or outer side, *2 acyl side, *3 side chain or, on linkers, in order; H or OH if unused. Where a SMILES comes first, the peptide text is derived from it. Bridges are numbered along the chain shown (N, C = ends). [ ]: non-standard residue; d: D form. The star is where a group is joined. ξ: configuration not given here. Phe(3-CF3) = N[C@@H](Cc1cccc(C(F)(F)F)c1)C(=O)O; Ala(morpholin-4-yl) = N[C@@H](CN1CCOCC1)C(=O)O; Phe(4-COOH) = N[C@@H](Cc1ccc(C(=O)O)cc1)C(=O)O; X5 = O=C([C@H](Cc1ccc2ncccc2c1)N[*:1])[*:2]; Bip = N[C@@H](Cc1ccc(-c2ccccc2)cc1)C(=O)O; Phe(3-Me) = Cc1cccc(C[C@H](N)C(=O)O)c1; d(aThr) = C[C@@H](O)[C@@H](N)C(=O)O; Val(3-OH) = CC(C)(O)[C@H](N)C(=O)O; hArg = N=C(N)NCCCC[C@H](N)C(=O)O; 4Pal = N[C@@H](Cc1ccncc1)C(=O)O; Cha = N[C@@H](CC1CCCCC1)C(=O)O; Cit = NC(=O)NCCC[C@H](N)C(=O)O; dCha = N[C@H](CC1CCCCC1)C(=O)O; Thr(3ξ) = CC(O)[C@H](N)C(=O)O; NMeNle = CCCC[C@H](NC)C(=O)O; Carboxymethyl = O=C(O)C*; Orn = NCCC[C@H](N)C(=O)O; Dab = NCC[C@H](N)C(=O)O; Dap = NC[C@H](N)C(=O)O; Piv = CC(C)(C)C(=O)*
# Molecular target: T1, human PD-1 / PD-L1-Ig binding on Jurkat cell line over-expressing human PD-1 (Jurkat-PD-1) (Homo sapiens, UniProt Q15116)
# T1 construct: expressed in transfected cells; host or cells: Jurkat
# T1 sequence (Q15116 25-288): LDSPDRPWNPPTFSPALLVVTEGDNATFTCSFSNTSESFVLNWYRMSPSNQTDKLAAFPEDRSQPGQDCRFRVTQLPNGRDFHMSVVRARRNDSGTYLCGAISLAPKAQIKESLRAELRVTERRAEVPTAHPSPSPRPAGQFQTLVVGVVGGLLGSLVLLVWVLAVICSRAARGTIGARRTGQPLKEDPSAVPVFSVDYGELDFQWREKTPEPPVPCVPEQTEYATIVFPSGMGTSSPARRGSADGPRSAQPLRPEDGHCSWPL
# Test: Jurkat-PD-1 Cell Binding High-Content Screening Assay (CBA)
# Format: cell-based
# Settings: Jurkat HPD1_PDL1 IC50, Jurkat-PD-1 cells, PE-labeled PD-L1-Ig 20 nM final
# In short: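 Binding of fluorescent PD-L1-Ig (phycoerythrin linked via the Ig tag, 20 nM final) to PD-1-overexpressing Jurkat cells was imaged after a 2 h, 37° C compound pretreatment and 1 hour ligand incubation.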
row,SMILES,IC50 [nM]
1,CC[C@H](C)[C@@H]1NC(=O)[C@H](Cc2ccc(-c3ccccc3)cc2)NC(=O)[C@H](C(C)C)NC(=O)[C@H](Cc2cccc(Cl)c2)NC(=O)[C@H](CC(=O)O)NC(=O)[C@H](Cc2ccc(C(=O)O)cc2)NC(=O)[C@H](Cc2ccncc2)NC(=O)CSC[C@@H](C(=O)N[C@@H](C)C(N)=O)NC(=O)[C@H]([C@@H](C)O)NC(=O)[C@H](C(C)C)NC(=O)[C@H](CC2CCCCC2)NC(=O)[C@H](CCN)NC(=O)[C@@H](CC(C)C)NC(=O)[C@H](CCCN)NC1=O [Compound 1558],15.8

# Same assay, conditions: Jurkat-PD-1 cells, PE-labeled PD-L1-Ig 20 nM final; read-out: Jurkat HPD1_PDL1 IC50
row,SMILES,IC50 [nM]
1,CCCC[C@H]1C(=O)N[C@@H](Cc2ccc(OCC(=O)O)cc2)C(=O)N[C@@H](CC(=O)O)C(=O)N[C@@H](Cc2cccc(C)c2)C(=O)N[C@@H](C(C)C)C(=O)N[C@@H](Cc2ccc(-c3ccccc3)cc2)C(=O)N[C@@H](C(C)O)C(=O)N[C@@H](CCCN)C(=O)N[C@H](CC(C)C)C(=O)N[C@@H](CCN)C(=O)N[C@@H](CC2CCCCC2)C(=O)N[C@@H](C(C)C)C(=O)N[C@@H](C(C)O)C(=O)N[C@H](C(=O)N[C@@H](CC(N)=O)C(N)=O)CSCC(=O)N1C (stereo partly drawn) [Compound 2553] ({CH2CO}-[NMeNle]Y(Carboxymethyl)D[Phe(3-Me)]V[Bip][Thr(3ξ)][Orn][dL][Dab][Cha]V[Thr(3ξ)]CN-NH2; thioether N-14),24.6
2,CC(C)C[C@@H]1NC(=O)[C@H](CCN)NC(=O)[C@@H](CC(C)C)NC(=O)[C@H](CC(=O)O)NC(=O)[C@H](C(C)C)NC(=O)[C@H](Cc2ccc(-c3ccccc3)cc2)NC(=O)[C@H](C(C)C)NC(=O)[C@H](Cc2c[nH]c3ccccc23)NC(=O)[C@H](CC(=O)O)NC(=O)[C@H](Cc2ccc(O)cc2)NC(=O)[C@H](CC(N)=O)NC(=O)CSC[C@@H](C(=O)N[C@@H](C)C(N)=O)NC(=O)[C@H]([C@@H](C)O)NC(=O)[C@H](C(C)C)NC1=O [Compound 1033] ({CH2CO}-NYDWV[Bip]VD[dL][Dab]LVTCA-NH2; thioether N-14),29.4
3,CC(C)[C@@H]1NC(=O)[C@H](Cc2c[nH]c3ccccc23)NC(=O)[C@H](CC(=O)O)NC(=O)[C@H](Cc2ccc(O)cc2)NC(=O)[C@H](CC(N)=O)NC(=O)CSC[C@@H](C(=O)N[C@@H](C)C(N)=O)NC(=O)[C@H]([C@@H](C)O)NC(=O)[C@H](C(C)C)NC(=O)[C@H](CC2CCCCC2)NC(=O)[C@H](CCN)NC(=O)[C@@H](CC2CCCCC2)NC(=O)[C@H](CCCN)NC(=O)[C@H](CCCNC(N)=O)NC(=O)[C@H](Cc2ccc(-c3ccccc3)cc2)NC1=O [Compound 1647] ({CH2CO}-NYDWV[Bip][Cit][Orn][dCha][Dab][Cha]VTCA-NH2; thioether N-14),50.9
4,CC[C@H](C)[C@@H]1NC(=O)[C@H](Cc2ccc(-c3ccccc3)cc2)NC(=O)[C@H](C(C)C)NC(=O)[C@H](Cc2cccc(C)c2)NC(=O)[C@H](CC(=O)O)NC(=O)[C@H](Cc2ccc(N=[N+]=[N-])cc2)NC(=O)[C@H](Cc2ccncc2)NC(=O)CSC[C@@H](C(=O)N[C@@H](C)C(N)=O)NC(=O)[C@H]([C@@H](C)O)NC(=O)[C@H](C(C)C)NC(=O)[C@H](CC2CCCCC2)NC(=O)[C@H](CCN)NC(=O)[C@@H](CC(C)C)NC(=O)[C@H](CCCN)NC1=O [Compound 2240],259
5,Cc1cccc(C[C@@H]2NC(=O)[C@H](CC(=O)O)NC(=O)[C@H](Cc3ccc(C(=O)O)cc3)NC(=O)[C@H](Cc3ccncc3)NC(=O)CSC[C@@H](C(=O)N[C@H](CC(N)=O)C(N)=O)NC(=O)[C@H](CCC(=O)O)NC(=O)[C@H](C(C)C)NC(=O)[C@H](CC3CCCCC3)NC(=O)[C@H](CCN)NC(=O)[C@@H](CC(C)C)NC(=O)[C@H](CCCN)NC(=O)[C@H](Cc3ccc(OCC(=O)O)cc3)NC(=O)[C@H](Cc3ccc(-c4ccccc4)cc3)NC(=O)[C@H](Cc3ccc(OCC(=O)O)cc3)NC2=O)c1 [Compound 2314] ({CH2CO}-[4Pal][Phe(4-COOH)]D[Phe(3-Me)]Y(Carboxymethyl)[Bip]Y(Carboxymethyl)[Orn][dL][Dab][Cha]VEC[dN]-NH2; thioether N-14),45.8
6,CC(C)C[C@@H]1NC(=O)[C@H](CCN)NC(=O)[C@@H](CC(C)C)NC(=O)[C@H](Cc2ccc(O)cc2)NC(=O)[C@H](C(C)C)NC(=O)[C@H](Cc2ccc(-c3ccccc3)cc2)NC(=O)[C@@H](C(C)C)NC(=O)[C@H](Cc2c[nH]c3ccccc23)NC(=O)[C@H](CC(=O)O)NC(=O)[C@H](Cc2ccc(O)cc2)NC(=O)[C@H](CC(N)=O)NC(=O)CSC[C@@H](C(=O)N[C@@H](C)C(N)=O)NC(=O)[C@@H]([C@@H](C)O)NC(=O)[C@H](C(C)C)NC1=O [Compound 1031] ({CH2CO}-NYDW[dV][Bip]VY[dL][Dab]LV[d(aThr)]CA-NH2; thioether N-14),87.4

# Next, values leading:
row,IC50 [nM],SMILES
1,2.3,CC(C)C[C@H]1NC(=O)[C@H](CCCN)NC(=O)[C@H](Cc2ccc(C(=O)O)cc2)NC(=O)[C@H](Cc2ccc(-c3ccccc3)cc2)NC(=O)[C@H](Cc2ccc3ncccc3c2)NC(=O)[C@H](Cc2cccc(C(F)(F)F)c2)NC(=O)[C@H](CC(=O)O)NC(=O)[C@H](Cc2ccc(C(=O)O)cc2)NC(=O)[C@H](CN2CCOCC2)NC(=O)CSC[C@@H](C(=O)N[C@@H](CCN)C(N)=O)NC(=O)[C@H](CCC(=O)O)NC(=O)[C@H](C(C)C)NC(=O)[C@H](CC2CCCCC2)NC(=O)[C@H](CCN)NC1=O [Example 2741] ({CH2CO}-[Ala(morpholin-4-yl)][Phe(4-COOH)]D[Phe(3-CF3)][X5][Bip][Phe(4-COOH)][Orn][dL][Dab][Cha]VEC[Dab]-NH2; thioether N-14)
2,8.7,CC[C@H](C)[C@@H]1NC(=O)[C@H](Cc2ccc(-c3ccccc3)cc2)NC(=O)[C@H](C(C)C)NC(=O)[C@H](Cc2c[nH]c3ccccc23)NC(=O)[C@H](CC(=O)O)NC(=O)[C@H](Cc2ccc(O)cc2)NC(=O)[C@H](CN)NC(=O)CSC[C@@H](C(=O)N[C@@H](C)C(N)=O)NC(=O)[C@H]([C@@H](C)O)NC(=O)[C@H](C(C)C)NC(=O)[C@H](CC2CCCCC2)NC(=O)[C@H](CCCNC(=N)N)NC(=O)[C@@H](CC(C)C)NC(=O)[C@H](CCCN)NC1=O [Compound 1145] ({CH2CO}-[Dap]YDWV[Bip]I[Orn][dL]R[Cha]VTCA-NH2; thioether N-14)
3,8.8,CC(C)C[C@H]1NC(=O)[C@H](CN)NC(=O)[C@H](C(C)C)NC(=O)[C@H](Cc2ccc(-c3ccccc3)cc2)NC(=O)[C@H](C(C)C)NC(=O)[C@H](Cc2c[nH]c3ccccc23)NC(=O)[C@H](CC(=O)O)NC(=O)[C@H](Cc2ccc(C(=O)O)cc2)NC(=O)[C@H](Cc2ccc(OCC(=O)O)cc2)NC(=O)CSC[C@@H](C(=O)NCC(N)=O)NC(=O)[C@H](CO)NC(=O)[C@H](C(C)C)NC(=O)[C@H](CC2CCCCC2)NC(=O)[C@H](CC(N)=O)NC1=O [Compound 1413] ({CH2CO}-Y(Carboxymethyl)[Phe(4-COOH)]DWV[Bip]V[Dap][dL]N[Cha]VSCG-NH2; thioether N-14)
4,4.7,Cc1cccc(C[C@@H]2NC(=O)[C@H](CC(=O)O)NC(=O)[C@H](Cc3ccc(OCC(=O)O)cc3)NC(=O)[C@H](C(C)O)NC(=O)CSC[C@@H](C(=O)N[C@@H](CCN)C(N)=O)NC(=O)[C@H](CO)NC(=O)[C@H](C(C)(C)O)NC(=O)[C@H](CC3CCCCC3)NC(=O)[C@H](CCN)NC(=O)[C@@H](CC(C)C)NC(=O)[C@H](CCCN)NC(=O)[C@H](Cc3ccc(OCC(=O)O)cc3)NC(=O)[C@H](Cc3ccc(-c4ccccc4)cc3)NC(=O)[C@H](Cc3ccc(C(=O)O)cc3)NC2=O)c1 (stereo partly drawn) [Compound 2634] ({CH2CO}-[Thr(3ξ)]Y(Carboxymethyl)D[Phe(3-Me)][Phe(4-COOH)][Bip]Y(Carboxymethyl)[Orn][dL][Dab][Cha][Val(3-OH)]SC[Dab]-NH2; thioether N-14)
5,12.8,Cc1cccc(C[C@@H]2NC(=O)[C@H](CC(=O)O)NC(=O)[C@H](Cc3ccc(OCC(=O)O)cc3)NC(=O)[C@H](Cc3ccncc3)NC(=O)CSC[C@@H](C(=O)N[C@@H](CCN)C(N)=O)NC(=O)[C@H]([C@@H](C)O)NC(=O)[C@H](C(C)C)NC(=O)[C@H](CC3CCCCC3)NC(=O)[C@H](CCNC(=O)C(C)(C)C)NC(=O)[C@@H](CC(C)C)NC(=O)[C@H](CCN)NC(=O)[C@H](Cc3ccc(OCC(=O)O)cc3)NC(=O)[C@H](Cc3ccc(-c4ccccc4)cc3)NC(=O)[C@H](Cc3ccc(OCC(=O)O)cc3)NC2=O)c1 [Compound 2062] ({CH2CO}-[4Pal]Y(Carboxymethyl)D[Phe(3-Me)]Y(Carboxymethyl)[Bip]Y(Carboxymethyl)[Dab][dL][Dab](Piv)[Cha]VTC[Dab]-NH2; thioether N-14)
6,7.5,CC(C)C[C@H]1NC(=O)[C@H](CCCN)NC(=O)[C@H](C(C)C)NC(=O)[C@H](Cc2ccc(-c3ccccc3)cc2)NC(=O)[C@H](C(C)C)NC(=O)[C@H](Cc2c[nH]c3ccccc23)NC(=O)[C@H](CC(=O)O)NC(=O)[C@H](Cc2ccc(OCC(=O)O)cc2)NC(=O)[C@H](CCCCNC(=N)N)NC(=O)CSC[C@@H](C(=O)N[C@@H](CC(N)=O)C(N)=O)NC(=O)[C@H](C(C)O)NC(=O)[C@H](C(C)C)NC(=O)[C@H](CC2CCCCC2)NC(=O)[C@H](CCN)NC1=O (stereo partly drawn) [Compound 2546] ({CH2CO}-[hArg]Y(Carboxymethyl)DWV[Bip]V[Orn][dL][Dab][Cha]V[Thr(3ξ)]CN-NH2; thioether N-14)
7,12.1,CC[C@H](C)[C@@H]1NC(=O)[C@H](Cc2ccc(-c3ccccc3)cc2)NC(=O)[C@H](C(C)C)NC(=O)[C@H](Cc2c[nH]c3ccccc23)NC(=O)[C@H](CC(=O)O)NC(=O)[C@H](Cc2ccc(O)cc2)NC(=O)[C@H](CC(N)=O)NC(=O)CSC[C@@H](C(=O)N[C@@H](C)C(N)=O)NC(=O)[C@H]([C@@H](C)O)NC(=O)[C@H](C(C)C)NC(=O)[C@H](CC(C)C)NC(=O)[C@H](CCN)NC(=O)[C@@H](CC(C)C)NC(=O)[C@H](CCCCN)NC1=O [Compound 1039] ({CH2CO}-NYDWV[Bip]IK[dL][Dab]LVTCA-NH2; thioether N-14)
